Data taken from ChEMBL document CHEMBL3885861, “Open TG-GATES”.

Species: Rattus norvegicus
Assay: Open TG-GATES - Regimen: Daily Repeat
Assay type: toxicity, organism-based, Sprague-Dawley
Set-up: regimen Daily Repeat, gender Male, age 6 weeks
Details: in vivo, po, 0 mg/kg, route gavage, dose level Control; for APTT / Bas / Eos / Fbg / Hb / Lym / MCH / MCHC / MCV / Mono / Neu / PT / Plat / RBC / Ret / WBC: tissue Blood; for KIDNEY_L / KIDNEY_R / KIDNEY_TOTAL: tissue Kidney; for LIVER: tissue Liver; for ALP / ALT / AST / BUN / CRE / Ca / Cl / DBIL / GLC / IP / K / LDH / Na / PL / RALB / TBIL / TC / TG / TP / gamma-GTP: tissue Plasma

Structure (SMILES): OCCN1CCN(CCCN2c3ccccc3Sc3ccc(C(F)(F)F)cc32)CC1 [FLUPHENAZINE]
- TERMINAL_BW (72 h, time 3 day): 233.9 g
- APTT (72 h, time 3 day): 16.9 s
- Bas (72 h, time 3 day): 0%
- Eos (72 h, time 3 day): 1%
- Fbg (72 h, time 3 day): 232.5 mg/dL
- Hb (72 h, time 3 day): 13.6 g/dL
- Lym (72 h, time 3 day): 77%
- MCH (72 h, time 3 day): 21.5 pg
- MCHC (72 h, time 3 day): 33.3%
- MCV (72 h, time 3 day): 64.4 fL
- Mono (72 h, time 3 day): 7.2%
- Neu (72 h, time 3 day): 15%
- PT (72 h, time 3 day): 12 s
- Plat (72 h, time 3 day): 126.3 x10_4/uL
- RBC (72 h, time 3 day): 632.2 x10_4/ul
- Ret (72 h, time 3 day): 6.2%
- WBC (72 h, time 3 day): 99.4 x10_2/uL
- KIDNEY_L (72 h, time 3 day): 1.1 g
- KIDNEY_R (72 h, time 3 day): 1.1 g
- KIDNEY_TOTAL (72 h, time 3 day): 2.2 g
- LIVER (72 h, time 3 day): 11.9 g
- ALP (72 h, time 3 day): 922 IU/L
- ALT (72 h, time 3 day): 35.2 IU/L
- AST (72 h, time 3 day): 60.2 IU/L
- BUN (72 h, time 3 day): 17.2 mg/dL
- CRE (72 h, time 3 day): 0.6 mg/dL
- Ca (72 h, time 3 day): 10.8 mg/dL
- Cl (72 h, time 3 day): 104.5 meq/L
- DBIL (72 h, time 3 day): 0.035 mg/dL
- GLC (72 h, time 3 day): 185 mg/dL
- IP (72 h, time 3 day): 8.5 mg/dL
- K (72 h, time 3 day): 4.9 meq/L
- LDH (72 h, time 3 day): 77.2 IU/L
- Na (72 h, time 3 day): 137.8 meq/L
- PL (72 h, time 3 day): 163 mg/dL
- RALB (72 h, time 3 day): 4 g/dL
- TBIL (72 h, time 3 day): 0.3 mg/dL
- TC (72 h, time 3 day): 86.2 mg/dL
- TG (72 h, time 3 day): 96.8 mg/dL
- TP (72 h, time 3 day): 5.8 g/dL
- gamma-GTP (72 h, time 3 day): 0.5 IU/L
- TERMINAL_BW ([…], time 7 day): 262.6 g
- TERMINAL_BW ([…], time 14 day): 300.9 g
- TERMINAL_BW ([…], time 28 day): 402.6 g
- APTT ([…], time 7 day): 16.3 s
- Bas ([…], time 7 day): 0%
- Eos ([…], time 7 day): 1%
- Fbg ([…], time 7 day): 239.4 mg/dL
- Hb ([…], time 7 day): 13.5 g/dL
- Lym ([…], time 7 day): 80.6%
- MCH ([…], time 7 day): 21.6 pg
- MCHC ([…], time 7 day): 33.5%
- MCV ([…], time 7 day): 64.4 fL
- Mono ([…], time 7 day): 4%
- Neu ([…], time 7 day): 15.2%
- PT ([…], time 7 day): 11.9 s
- Plat ([…], time 7 day): 114.7 x10_4/uL
- RBC ([…], time 7 day): 627.6 x10_4/ul
- Ret ([…], time 7 day): 5.2%
- WBC ([…], time 7 day): 114 x10_2/uL
- APTT ([…], time 14 day): 17.2 s
- Bas ([…], time 14 day): 0%
- Eos ([…], time 14 day): 0.6%
- Fbg ([…], time 14 day): 235.6 mg/dL
- Hb ([…], time 14 day): 14.2 g/dL
- Lym ([…], time 14 day): 82.8%
- MCH ([…], time 14 day): 20.3 pg
- MCHC ([…], time 14 day): 33.3%
- MCV ([…], time 14 day): 61.1 fL
- Mono ([…], time 14 day): 5.4%
- Neu ([…], time 14 day): 11%
- PT ([…], time 14 day): 11.7 s
- Plat ([…], time 14 day): 107.2 x10_4/uL
- RBC ([…], time 14 day): 699.2 x10_4/ul
- Ret ([…], time 14 day): 3.7%
- WBC ([…], time 14 day): 145.4 x10_2/uL
- APTT ([…], time 28 day): 17.2 s
- Bas ([…], time 28 day): 0%
- Eos ([…], time 28 day): 1%
- Fbg ([…], time 28 day): 231 mg/dL
- Hb ([…], time 28 day): 15.2 g/dL
- Lym ([…], time 28 day): 84.8%
- MCH ([…], time 28 day): 19.7 pg
- MCHC ([…], time 28 day): 33.4%
- MCV ([…], time 28 day): 58.8 fL
- Mono ([…], time 28 day): 4.8%
- Neu ([…], time 28 day): 9.8%
- PT ([…], time 28 day): 11.8 s
- Plat ([…], time 28 day): 92.5 x10_4/uL
- RBC ([…], time 28 day): 774 x10_4/ul
- Ret ([…], time 28 day): 2.7%
- WBC ([…], time 28 day): 160.8 x10_2/uL
- KIDNEY_L ([…], time 7 day): 1.2 g
- KIDNEY_R ([…], time 7 day): 1.2 g
- KIDNEY_TOTAL ([…], time 7 day): 2.3 g
- KIDNEY_L ([…], time 14 day): 1.2 g
- KIDNEY_R ([…], time 14 day): 1.2 g
- KIDNEY_TOTAL ([…], time 14 day): 2.4 g
- KIDNEY_L ([…], time 28 day): 1.5 g
- KIDNEY_R ([…], time 28 day): 1.5 g
- KIDNEY_TOTAL ([…], time 28 day): 2.9 g
- LIVER ([…], time 7 day): 13.1 g
- LIVER ([…], time 14 day): 13.9 g
- LIVER ([…], time 28 day): 17.1 g
- ALP ([…], time 7 day): 774.2 IU/L
- ALT ([…], time 7 day): 30.4 IU/L
- AST ([…], time 7 day): 61.6 IU/L
- BUN ([…], time 7 day): 18.4 mg/dL
- CRE ([…], time 7 day): 0.5 mg/dL
- Ca ([…], time 7 day): 10.5 mg/dL
- Cl ([…], time 7 day): 106.2 meq/L
- DBIL ([…], time 7 day): 0.016 mg/dL
- GLC ([…], time 7 day): 196.2 mg/dL
- IP ([…], time 7 day): 8.4 mg/dL
- K ([…], time 7 day): 4.6 meq/L
- LDH ([…], time 7 day): 82.6 IU/L
- Na ([…], time 7 day): 138.8 meq/L
- PL ([…], time 7 day): 156 mg/dL
- RALB ([…], time 7 day): 3.9 g/dL
- TBIL ([…], time 7 day): 0.3 mg/dL
- TC ([…], time 7 day): 79.4 mg/dL
- TG ([…], time 7 day): 101 mg/dL
- TP ([…], time 7 day): 5.9 g/dL
- gamma-GTP ([…], time 7 day): 1.6 IU/L
- ALP ([…], time 14 day): 734.4 IU/L
- ALT ([…], time 14 day): 30.6 IU/L
- AST ([…], time 14 day): 55.8 IU/L
- BUN ([…], time 14 day): 19.8 mg/dL
- CRE ([…], time 14 day): 0.5 mg/dL
- Ca ([…], time 14 day): 11 mg/dL
- Cl ([…], time 14 day): 102.6 meq/L
- DBIL ([…], time 14 day): 0 mg/dL
- GLC ([…], time 14 day): 186.6 mg/dL
- IP ([…], time 14 day): 8.5 mg/dL
- K ([…], time 14 day): 4.5 meq/L
- LDH ([…], time 14 day): 97.4 IU/L
- Na ([…], time 14 day): 135.8 meq/L
- PL ([…], time 14 day): 166 mg/dL
- RALB ([…], time 14 day): 4.2 g/dL
- TBIL ([…], time 14 day): 0.3 mg/dL
- TC ([…], time 14 day): 77 mg/dL
- TG ([…], time 14 day): 181.8 mg/dL
- TP ([…], time 14 day): 6.2 g/dL
- gamma-GTP ([…], time 14 day): 1.4 IU/L
- ALP ([…], time 28 day): 649.8 IU/L
- ALT ([…], time 28 day): 32.2 IU/L
- AST ([…], time 28 day): 57 IU/L
- BUN ([…], time 28 day): 20.6 mg/dL
- CRE ([…], time 28 day): 0.6 mg/dL
- Ca ([…], time 28 day): 10.8 mg/dL
- Cl ([…], time 28 day): 104.8 meq/L
- DBIL ([…], time 28 day): 0.01 mg/dL
- GLC ([…], time 28 day): 197.4 mg/dL
- IP ([…], time 28 day): 7 mg/dL
- K ([…], time 28 day): 4.5 meq/L
- LDH ([…], time 28 day): 80 IU/L
- Na ([…], time 28 day): 140.8 meq/L
- PL ([…], time 28 day): 171.6 mg/dL
- RALB ([…], time 28 day): 4.1 g/dL
- TBIL ([…], time 28 day): 0.3 mg/dL
- TC ([…], time 28 day): 74.6 mg/dL
- TG ([…], time 28 day): 216 mg/dL
- TP ([…], time 28 day): 6.4 g/dL
- gamma-GTP ([…], time 28 day): 1 IU/L
